Reference: article PMC4418468 (BioTechniques, 2009)

Target: CXCR7 (Homo sapiens, UniProt P25106)
Assay: competition of CXCL12-Gaussia luciferase binding to intact cells at […] °C
Type: cell-based

CXCR7, sequence (P25106 whole entry): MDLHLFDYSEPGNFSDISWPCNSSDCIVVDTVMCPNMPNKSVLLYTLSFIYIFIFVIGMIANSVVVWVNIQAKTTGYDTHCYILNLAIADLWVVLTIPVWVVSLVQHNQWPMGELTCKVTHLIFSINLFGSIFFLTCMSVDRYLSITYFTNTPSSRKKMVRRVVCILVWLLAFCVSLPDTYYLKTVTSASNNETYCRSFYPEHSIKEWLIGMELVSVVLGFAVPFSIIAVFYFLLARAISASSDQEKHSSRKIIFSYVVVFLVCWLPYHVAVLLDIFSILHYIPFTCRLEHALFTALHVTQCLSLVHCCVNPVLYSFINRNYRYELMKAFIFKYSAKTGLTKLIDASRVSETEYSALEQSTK

Row | Substance | EC50
1 | CCX754 | ~250 nM
2 | CCX733 | ~18 nM
